Active and inactive are the calls of the source. The calls are words filed in the database; no cut-off is given here.
Experiments:
[1] = target: T1, Intercellular adhesion molecule (ICAM-1), Integrin alpha-L/beta-2 (Homo sapiens, UniProt P05107+P05362+P20701); test: Antagonist activity at LFA-1/ICAM-1 in human HuT-78 T-cells assessed as inhibition of cell adhesion after 1 hr by p-nitrophenyl n-acetyl-beta-D-glucosaminide method; format: functional, cell-based, HuT78
[2] = target: T1, Intercellular adhesion molecule (ICAM-1), Integrin alpha-L/beta-2; test: Antagonist activity at LFA-1/ICAM-1 in human HuT-78 T-cells assessed as inhibition of cell adhesion after 1 hr by p-nitrophenyl n-acetyl-beta-D-glucosaminide method in presence of 10% human serum; format: functional, cell-based, HuT78
[3] = target: Intercellular adhesion molecule 1 (Homo sapiens) (UniProt P05362); test: Inhibition of ICAM-1-mediated IL-1beta release
[4] = target: Intercellular adhesion molecule 1 (Homo sapiens) (UniProt P05362); test: Inhibition of ICAM-1-mediated IL-10 release
[5] = target: Intercellular adhesion molecule 1 (Homo sapiens) (UniProt P05362); test: Inhibition of ICAM-1-mediated IFNgamma release
[6] = target: Intercellular adhesion molecule 1 (Homo sapiens) (UniProt P05362); test: Inhibition of ICAM-1-mediated IL-6 release
[7] = target: Intercellular adhesion molecule 1 (Homo sapiens) (UniProt P05362); test: Inhibition of ICAM-1-mediated MIP-1alpha release
[8] = target: Intercellular adhesion molecule 1 (Homo sapiens) (UniProt P05362); test: Inhibition of ICAM-1-mediated IL-1alpha release
[9] = Drug uptake in dog bulbar conjunctiva administered topically as ophthalmic solution after 30 mins; format: ADME, tissue-based, Canis lupus familiaris; settings: in vivo, topical_or_ocular, 0.5 h
[10] = Drug uptake in rat cornea administered topically as ophthalmic solution after 30 mins; format: ADME, tissue-based; settings: in vivo, topical_or_ocular, 0.5 h
[11] = Drug uptake in rat bulbar conjunctiva administered topically as ophthalmic solution after 30 mins; format: ADME; settings: in vivo, topical_or_ocular, 0.5 h
[12] = Drug uptake in dog palpebral conjunctiva administered topically as ophthalmic solution after 30 mins; format: ADME, tissue-based, Canis lupus familiaris; settings: in vivo, topical_or_ocular, 0.5 h
[13] = Drug uptake in dog cornea administered topically as ophthalmic solution after 30 mins; format: ADME, tissue-based, Canis lupus familiaris; settings: in vivo, topical_or_ocular, 0.5 h
[14] = Drug uptake in rat palpebral conjunctiva administered topically as ophthalmic solution after 30 mins; format: ADME, tissue-based; settings: in vivo, topical_or_ocular, 0.5 h
[15] = Clearance in Sprague-Dawley rat at 5 mg/kg, iv; format: ADME, organism-based; set-up: dose 5 mg/kg, route intravenous; settings: in vivo
[16] = Metabolic stability in human liver microsomes assessed as compound remaining after 30 mins; format: ADME, Microsome; settings: read-out: Stability
[17] = Half life in Sprague-Dawley rat at 5 mg/kg, iv; format: ADME, organism-based; set-up: dose 5 mg/kg, route intravenous; settings: in vivo
[18] = tested on: Rattus norvegicus; test: AUC in Sprague-Dawley rat at 5 mg/kg, iv; format: ADME, organism-based, Plasma; set-up: dose 5 mg/kg, route intravenous; settings: in vivo
[19] = Metabolic stability in rat liver microsomes assessed as compound remaining after 30 mins; format: ADME, Microsome; settings: read-out: Stability
[20] = Solubility of the compound in phosphate-buffered saline; format: physicochemical
[21] = tested on: Canis familiaris; test: Increase of mean schirmer's tear test in dog administered topically with 1% PBS solution tid for 12 weeks measured after 1 to 12 weeks; format: functional, Canis lupus familiaris
[22] = target: Cytochrome P450 2C9 (Homo sapiens, UniProt P11712); test: Inhibition of CYP2C9; format: ADME
[23] = tested on: Salmonella typhimurium; test: Genotoxicity in Salmonella typhimurium by Ames test; format: toxicity, organism-based; settings: salmonella enterica subsp. enterica serovar typhimurium
[24] = target: Cytochrome P450 3A4 (Homo sapiens, UniProt P08684); test: Inhibition of CYP3A4; format: ADME
Sequence of Cytochrome P450 3A4 (P08684 whole entry): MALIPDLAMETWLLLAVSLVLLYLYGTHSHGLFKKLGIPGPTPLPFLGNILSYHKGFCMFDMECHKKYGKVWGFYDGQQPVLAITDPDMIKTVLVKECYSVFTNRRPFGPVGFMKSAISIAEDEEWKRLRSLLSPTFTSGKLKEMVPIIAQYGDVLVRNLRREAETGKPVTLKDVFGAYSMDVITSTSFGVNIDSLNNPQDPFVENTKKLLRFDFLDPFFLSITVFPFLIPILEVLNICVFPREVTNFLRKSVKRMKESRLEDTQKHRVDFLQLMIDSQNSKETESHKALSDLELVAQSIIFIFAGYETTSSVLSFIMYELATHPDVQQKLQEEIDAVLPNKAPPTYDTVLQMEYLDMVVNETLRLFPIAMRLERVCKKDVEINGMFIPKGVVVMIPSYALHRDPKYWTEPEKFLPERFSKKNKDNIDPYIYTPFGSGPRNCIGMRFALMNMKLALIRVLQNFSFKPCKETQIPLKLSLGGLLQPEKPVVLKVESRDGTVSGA

T1 sequence (P20701 whole entry): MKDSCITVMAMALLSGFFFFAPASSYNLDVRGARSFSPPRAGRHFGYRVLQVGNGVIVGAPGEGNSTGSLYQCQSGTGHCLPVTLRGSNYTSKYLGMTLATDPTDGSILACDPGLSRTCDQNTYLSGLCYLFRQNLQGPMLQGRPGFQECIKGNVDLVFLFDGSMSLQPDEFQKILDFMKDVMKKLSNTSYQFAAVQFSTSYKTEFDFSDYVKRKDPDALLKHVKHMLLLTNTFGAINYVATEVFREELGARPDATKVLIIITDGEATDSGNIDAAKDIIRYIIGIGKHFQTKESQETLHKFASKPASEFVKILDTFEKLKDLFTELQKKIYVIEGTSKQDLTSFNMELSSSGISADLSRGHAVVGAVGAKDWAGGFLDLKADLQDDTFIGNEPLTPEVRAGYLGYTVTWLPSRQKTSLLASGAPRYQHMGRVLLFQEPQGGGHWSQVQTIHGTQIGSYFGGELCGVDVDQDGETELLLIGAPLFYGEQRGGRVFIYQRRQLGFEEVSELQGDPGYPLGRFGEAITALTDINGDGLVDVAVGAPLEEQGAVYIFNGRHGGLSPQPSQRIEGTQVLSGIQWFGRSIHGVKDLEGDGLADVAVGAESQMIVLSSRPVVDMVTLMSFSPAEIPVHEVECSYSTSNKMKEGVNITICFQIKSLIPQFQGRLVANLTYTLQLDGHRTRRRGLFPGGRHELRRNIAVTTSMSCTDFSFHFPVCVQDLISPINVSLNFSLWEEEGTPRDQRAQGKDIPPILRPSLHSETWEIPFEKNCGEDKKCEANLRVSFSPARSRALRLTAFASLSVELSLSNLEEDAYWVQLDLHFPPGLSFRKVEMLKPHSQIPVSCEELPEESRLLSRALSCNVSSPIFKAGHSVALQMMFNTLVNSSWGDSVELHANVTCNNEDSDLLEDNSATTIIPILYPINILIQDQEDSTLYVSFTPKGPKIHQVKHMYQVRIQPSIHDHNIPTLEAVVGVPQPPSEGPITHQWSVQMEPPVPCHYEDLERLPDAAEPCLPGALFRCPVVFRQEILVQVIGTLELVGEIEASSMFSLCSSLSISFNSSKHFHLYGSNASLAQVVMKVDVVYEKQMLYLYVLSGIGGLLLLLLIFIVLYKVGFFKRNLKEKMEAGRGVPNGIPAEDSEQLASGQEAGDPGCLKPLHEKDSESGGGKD
T1 sequence (P05362 whole entry): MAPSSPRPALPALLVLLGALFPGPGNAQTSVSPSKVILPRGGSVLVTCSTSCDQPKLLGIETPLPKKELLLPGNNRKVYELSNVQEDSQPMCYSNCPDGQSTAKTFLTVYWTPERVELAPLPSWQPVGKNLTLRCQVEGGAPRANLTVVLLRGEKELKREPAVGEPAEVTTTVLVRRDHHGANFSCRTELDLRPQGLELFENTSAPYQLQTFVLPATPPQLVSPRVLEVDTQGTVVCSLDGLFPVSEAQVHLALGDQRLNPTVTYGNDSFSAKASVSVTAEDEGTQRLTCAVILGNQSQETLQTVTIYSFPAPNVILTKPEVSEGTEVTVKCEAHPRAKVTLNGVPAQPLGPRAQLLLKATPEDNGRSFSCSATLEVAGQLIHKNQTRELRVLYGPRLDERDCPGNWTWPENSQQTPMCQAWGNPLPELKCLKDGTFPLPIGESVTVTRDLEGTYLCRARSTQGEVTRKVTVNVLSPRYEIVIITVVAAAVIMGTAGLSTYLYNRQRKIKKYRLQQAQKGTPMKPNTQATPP
T1 sequence (P05107 whole entry): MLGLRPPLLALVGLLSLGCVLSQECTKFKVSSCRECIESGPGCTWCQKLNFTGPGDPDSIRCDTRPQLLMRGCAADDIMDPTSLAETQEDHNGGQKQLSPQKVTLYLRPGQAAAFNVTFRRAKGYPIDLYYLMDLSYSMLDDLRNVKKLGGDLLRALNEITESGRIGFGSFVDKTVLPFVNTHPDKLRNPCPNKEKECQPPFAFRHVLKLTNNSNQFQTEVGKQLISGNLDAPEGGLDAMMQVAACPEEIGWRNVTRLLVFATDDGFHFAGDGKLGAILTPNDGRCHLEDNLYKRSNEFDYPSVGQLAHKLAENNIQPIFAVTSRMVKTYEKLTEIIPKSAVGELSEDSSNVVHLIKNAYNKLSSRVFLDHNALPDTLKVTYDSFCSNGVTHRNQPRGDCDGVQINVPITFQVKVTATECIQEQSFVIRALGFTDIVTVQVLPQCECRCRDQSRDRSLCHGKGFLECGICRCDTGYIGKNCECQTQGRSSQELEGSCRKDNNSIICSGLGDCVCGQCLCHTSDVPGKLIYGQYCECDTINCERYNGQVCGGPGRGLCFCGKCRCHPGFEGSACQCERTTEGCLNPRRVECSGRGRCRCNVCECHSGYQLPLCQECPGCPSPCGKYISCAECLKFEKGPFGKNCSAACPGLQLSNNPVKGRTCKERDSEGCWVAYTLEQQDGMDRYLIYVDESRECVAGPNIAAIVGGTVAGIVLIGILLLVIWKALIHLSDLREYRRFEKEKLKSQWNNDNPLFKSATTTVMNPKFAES
Sequence of Intercellular adhesion molecule 1 (Homo sapiens) (P05362 whole entry): as the sequence (P05362 whole entry) above
Sequence of Cytochrome P450 2C9 (P11712 whole entry): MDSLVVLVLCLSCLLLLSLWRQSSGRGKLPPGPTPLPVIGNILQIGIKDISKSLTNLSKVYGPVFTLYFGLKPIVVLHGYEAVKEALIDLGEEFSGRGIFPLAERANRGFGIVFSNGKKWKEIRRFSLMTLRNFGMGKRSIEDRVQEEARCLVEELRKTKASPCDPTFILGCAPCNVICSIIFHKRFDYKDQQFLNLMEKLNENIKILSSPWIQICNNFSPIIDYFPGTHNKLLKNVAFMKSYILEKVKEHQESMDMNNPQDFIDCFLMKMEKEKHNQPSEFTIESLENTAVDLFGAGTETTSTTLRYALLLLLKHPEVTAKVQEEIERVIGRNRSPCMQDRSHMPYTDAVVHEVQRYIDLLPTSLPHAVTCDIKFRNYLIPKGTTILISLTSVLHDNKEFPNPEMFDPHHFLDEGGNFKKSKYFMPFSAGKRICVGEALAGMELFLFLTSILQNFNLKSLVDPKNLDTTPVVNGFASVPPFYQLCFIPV

Row | Compound | IC50 [1] | IC50 [2] | clearance [15] | remaining at 0.5 h [16] | half-life [17] | AUC [18] | remaining at 0.5 h [19] | further results
1 | C[C@H](O)c1cccc(C[C@H](NC(=O)c2c(Cl)cc3c(c2Cl)CCN(C(=O)c2ccc4ccoc4c2)C3)C(=O)O)c1 | 0.014 µM | 0.94 µM | – | – | – | – | – | –
2 | CS(=O)(=O)c1cccc(C[C@H](NC(=O)c2c(Cl)cc3c(c2Cl)CCN(C(=O)c2ccc4ccoc4c2)C3)C(=O)O)c1 [listing 1 of 2 here] | – | – | – | – | – | – | – | inhibition [3]: Active; inhibition [4]: Active; inhibition [5]: Active; inhibition [6]: Active; inhibition [7]: Active; inhibition [8]: Active
3 | CS(=O)(=O)c1cccc(C[C@H](N[14C](=O)c2c(Cl)cc3c(c2Cl)CCN(C(=O)c2ccc4ccoc4c2)C3)C(=O)O)c1 | – | – | – | – | – | – | – | Drug uptake [9]: Active; Drug uptake [10]: Active; Drug uptake [11]: Active; Drug uptake [12]: Active; Drug uptake [13]: Active; Drug uptake [14]: Active
4 | CC(C)S(=O)(=O)c1cccc(C[C@H](NC(=O)c2c(Cl)cc3c(c2Cl)CCN(C(=O)c2ccc4ccoc4c2)C3)C(=O)O)c1 | 0.2 µM | > 10 µM | – | – | – | – | – | –
5 | CC(C)c1cccc(C[C@H](NC(=O)c2c(Cl)cc3c(c2Cl)CCN(C(=O)c2ccc(Cl)cc2)C3)C(=O)O)c1 | 0.01 µM | > 10 µM | – | – | – | – | – | –
6 | CS(=O)(=O)c1cncc(C[C@H](NC(=O)c2c(Cl)cc3c(c2Cl)CCN(C(=O)c2ccc4ccoc4c2)C3)C(=O)O)c1 | 0.039 µM | 0.032 µM | 73.5 mL/min/kg | > 95% | 37.2 min | 1280 ng·h/mL | > 95% | –
7 | CN(C)S(=O)(=O)c1cccc(C[C@H](NC(=O)c2c(Cl)cc3c(c2Cl)CCN(C(=O)c2ccc4ccoc4c2)C3)C(=O)O)c1 | 0.01 µM | > 10 µM | – | – | – | – | – | –
8 | CS(=O)(=O)c1ccc(C[C@H](NC(=O)c2c(Cl)cc3c(c2Cl)CCN(C(=O)c2ccc(Cl)cc2)C3)C(=O)O)cc1 | 0.25 µM | – | – | – | – | – | – | –
9 | CP(C)(=O)c1cccc(C[C@H](NC(=O)c2c(Cl)cc3c(c2Cl)CCN(C(=O)c2ccc4ccoc4c2)C3)C(=O)O)c1 | 0.058 µM | 0.49 µM | 37 mL/min/kg | > 95% | 22.2 min | 2260 ng·h/mL | > 95% | –
10 | C[C@@H](O)c1cccc(C[C@H](NC(=O)c2c(Cl)cc3c(c2Cl)CCN(C(=O)c2ccc4ccoc4c2)C3)C(=O)O)c1 | 0.01 µM | 4 µM | – | – | – | – | – | –
11 | CCS(=O)(=O)c1cccc(C[C@H](NC(=O)c2c(Cl)cc3c(c2Cl)CCN(C(=O)c2ccc4ccoc4c2)C3)C(=O)O)c1 | 0.002 µM | 0.18 µM | – | – | – | – | – | –
12 | CS(=O)(=O)c1cccc(C[C@H](NC(=O)c2c(Cl)cc3c(c2Cl)CCN(C(=O)c2ccc(Cl)cc2)C3)C(=O)O)c1 | 0.003 µM | 0.2 µM | – | – | – | – | – | –
13 | C[S+]([O-])c1cncc(CC(NC(=O)c2c(Cl)cc3c(c2Cl)CCN(C(=O)c2ccc4ccoc4c2)C3)C(=O)O)c1 (racemic) | 0.057 µM | 0.05 µM | 121 mL/min/kg | > 95% | 16.2 min | 753 ng·h/mL | > 95% | –
14 | CS(=O)(=O)c1ccc(Cl)c(C[C@H](NC(=O)c2c(Cl)cc3c(c2Cl)CCN(C(=O)c2ccc4ccoc4c2)C3)C(=O)O)c1 | 0.12 µM | – | – | – | – | – | – | –
15 | CS(=O)(=O)c1cccc(C[C@H](NC(=O)c2c(Cl)cc3c(c2Cl)CCN(C(=O)c2ccc4ccoc4c2)C3)C(=O)O)c1Cl | 0.8 µM | – | – | – | – | – | – | –
16 | CNS(=O)(=O)c1cccc(C[C@H](NC(=O)c2c(Cl)cc3c(c2Cl)CCN(C(=O)c2ccc4ccoc4c2)C3)C(=O)O)c1 | 0.013 µM | 0.64 µM | – | – | – | – | – | –
17 | NS(=O)(=O)c1cccc(C[C@H](NC(=O)c2c(Cl)cc3c(c2Cl)CCN(C(=O)c2ccc4ccoc4c2)C3)C(=O)O)c1 | 0.004 µM | 0.2 µM | 34.4 mL/min/kg | 71% | 61.8 min | 2430 ng·h/mL | > 95% | –
18 | CS(=O)(=O)c1ccccc1C[C@H](NC(=O)c1c(Cl)cc2c(c1Cl)CCN(C(=O)c1ccc(Cl)cc1)C2)C(=O)O | > 1 µM | – | – | – | – | – | – | –
19 | CS(=O)(=O)c1ccc(C[C@H](NC(=O)c2c(Cl)cc3c(c2Cl)CCN(C(=O)c2ccc(Cl)cc2)C3)C(=O)O)o1 | 0.006 µM | 0.24 µM | 74.3 mL/min/kg | 92% | 16.2 min | 1130 ng·h/mL | > 95% | –
20 | CS(=O)(=O)c1cc(Cl)cc(C[C@H](NC(=O)c2c(Cl)cc3c(c2Cl)CCN(C(=O)c2ccc4ccoc4c2)C3)C(=O)O)c1 | 0.01 µM | 0.2 µM | – | – | – | – | – | –
21 | CS(=O)(=O)c1cccc(C[C@H](NC(=O)c2c(Cl)cc3c(c2Cl)CCN(C(=O)c2ccc4ccoc4c2)C3)C(=O)[O-])c1.[Na+] [LIFITEGRAST SODIUM] | – | – | – | – | – | – | – | solubility [20]: ≥ 200 mg/mL
22 | CS(=O)(=O)c1cc(F)cc(C[C@H](NC(=O)c2c(Cl)cc3c(c2Cl)CCN(C(=O)c2ccc4ccoc4c2)C3)C(=O)O)c1 | 0.01 µM | 0.26 µM | 80.5 mL/min/kg | > 95% | 39 min | 1190 ng·h/mL | > 95% | –
23 | CS(=O)(=O)c1cccc(C[C@H](NC(=O)c2c(Cl)cc3c(c2Cl)CCN(C(=O)c2ccc4ccoc4c2)C3)C(=O)O)c1 [listing 2 of 2 here] | 0.009 µM | 0.074 µM | 139 mL/min/kg | 71% | 46.8 min | 705 ng·h/mL | > 95% | Activity [21]: 3.4 mm; IC50 [22]: 3 µM; Activity [23]: Non-toxic; IC50 [24]: > 20 µM
24 | CS(=O)(=O)c1ccc(C[C@H](NC(=O)c2c(Cl)cc3c(c2Cl)CCN(C(=O)c2ccc4ccoc4c2)C3)C(=O)O)o1 | – | – | 60 mL/min/kg | 65% | 25.8 min | 1510 ng·h/mL | > 95% | –
25 | CS(=O)(=O)c1cc(C[C@H](NC(=O)c2c(Cl)cc3c(c2Cl)CCN(C(=O)c2ccc4ccoc4c2)C3)C(=O)O)ccc1Cl | 0.12 µM | 2 µM | – | – | – | – | – | –
26 | CC(=O)c1cccc(C[C@H](NC(=O)c2c(Cl)cc3c(c2Cl)CCN(C(=O)c2ccc4ccoc4c2)C3)C(=O)O)c1 | 0.012 µM | 5.6 µM | – | – | – | – | – | –

Source: ChEMBL document CHEMBL2046303, “Discovery and Development of Potent LFA-1/ICAM-1 Antagonist SAR 1118 as an Ophthalmic Solution for Treating Dry Eye” (ACS Med Chem Lett, 2012)
